Experimental findings from US20070128217A1 (priority 2003, published 2007) are described below.

For assay [1], the system named is antibodies in sera from SARS patients (sera 1a, 1b, 2, 6, 37, 62, London, SARS-yellow, SARS-green). It is filed as binding, human. More on the design: Binding of serum 6 to linear peptides of protein X1 of SARS-CoV Urbani / Binding of serum 37 to linear peptides of protein X1 of SARS-CoV Urbani / Binding of serum 6 to looped/cyclic peptide (PEPSCAN-ELISA) / Binding of serum 37 to looped/cyclic peptide (PEPSCAN-ELISA) / Binding of serum 37 to looped/cyclic peptides of protein X1 of SARS-CoV Urbani / Binding of serum 6 to linear peptides of protein X2 / Binding of serum 37 to linear peptides of protein X2 / Binding of serum 37 to looped/cyclic peptides of protein X2 of SARS-CoV Urbani / Binding of serum 6 to linear peptides of protein M of SARS-CoV Urbani / Binding of serum 37 to linear peptides of protein M of SARS-CoV Urbani / Binding of serum 6 to looped/cyclic peptides of protein M of SARS-CoV Urbani / Binding of serum 37 to looped/cyclic peptides of protein M of SARS-CoV Urbani / Binding of serum 6 to linear peptides of protein X3 of SARS-CoV Urbani / Binding of serum 37 to linear peptides of protein X3 of SARS-CoV Urbani / Binding of serum 37 to looped/cyclic peptides of protein X3 of SARS-CoV Urbani / Binding of serum 6 to linear peptides of protein X4 of SARS-CoV Urbani / Binding of serum 37 to linear peptides of protein X4 of SARS-CoV Urbani / Binding of serum 37 to looped/cyclic peptides of protein X4 of SARS-CoV Urbani / Binding of serum 6 to linear peptides of protein X5 of SARS-CoV Urbani / Binding of serum 37 to linear peptides of protein X5 of SARS-CoV Urbani / Binding of serum 37 to looped/cyclic peptides of protein X5 of SARS-CoV Urbani / Binding of serum 6 to linear peptides of protein N of SARS-CoV Urbani / Binding of serum 37 to linear peptides of protein N of SARS-CoV Urbani / Binding of serum 6 to linear peptide (PEPSCAN-ELISA) / Binding of serum 1a to looped/cyclic peptides of protein N of SARS-CoV Urbani / Binding of serum 1b to looped/cyclic peptides of protein N of SARS-CoV Urbani / Binding of serum 2 to looped/cyclic peptides of protein N of SARS-CoV Urbani / Binding of serum 6 to looped/cyclic peptides of protein N of SARS-CoV Urbani / Binding of serum 37 to looped/cyclic peptides of protein N of SARS-CoV Urbani / Binding of serum 62 to looped/cyclic peptides of protein N of SARS-CoV Urbani / Binding of serum London to looped/cyclic peptides of protein N of SARS-CoV Urbani / Binding of serum SARS-green to looped/cyclic peptides of protein N of SARS-CoV Urbani: unit not given here.

The subject of assay [2] is rabbit serum obtained by immunizing a rabbit with the SARS-CoV strain Frankfurt 1. It is filed as binding. More on the design: Binding of a rabbit serum to linear peptides / Binding of a rabbit serum to looped peptides / Rabbit serum linear peptides / Rabbit serum looped peptides / Binding of a rabbit serum to linear peptides of protein N of SARS-CoV Urbani (Rabbit serum linear peptides) / Binding of a rabbit serum to looped/cyclic peptides of protein N of SARS-CoV Urbani (Rabbit serum looped peptides): unit not given here.

Assay [3] has as its system control sera (pooled serum of ten healthy LUMC hospital workers; commercial negative donor pooled serum from the Dutch bloodbank). In kind it is binding, human.

As to HITVSQIQLSLLKVT, in assay [1], the “Binding of serum 1a to linear peptides of protein X2” value came out at 0.6, the “Binding of serum 1a to looped/cyclic peptides of protein X2 of SARS-CoV Urbani” value is given as 0.5, the “Binding of serum 1b to linear peptides of protein X2” value was found to be 0.5 and the “Binding of serum 1b to looped/cyclic peptides of protein X2 of SARS-CoV Urbani” value is recorded as 0.5. In assay [1], the “Binding of serum 2 to linear peptides of protein X2” value is on record as 0.5, the “Binding of serum 2 to looped/cyclic peptides of protein X2 of SARS-CoV Urbani” value came to 0.5, the “Binding of serum 6 to linear peptides of protein X2” value turned out to be 0.5 and the “Binding of serum 6 to looped/cyclic peptides of protein X2 of SARS-CoV Urbani” value came to 0.4. Further, in assay [1], the “Binding of serum 37 to linear peptides of protein X2” value is 0.7, the “Binding of serum 37 to looped/cyclic peptides of protein X2 of SARS-CoV Urbani” value is recorded as 0.5, the “Binding of serum 62 to linear peptides of protein X2” value came to 0.5 and the “Binding of serum 62 to looped/cyclic peptides of protein X2 of SARS-CoV Urbani” value amounted to 0.6. For the same sequence, in assay [1], the “Binding of serum London to linear peptides of protein X2” value is given as 0.4, the “Binding of serum London to looped/cyclic peptides of protein X2 of SARS-CoV Urbani” value came out at 0.8, the “Binding of serum SARS-green to linear peptides of protein X2” value is 0.2 and the “Binding of serum SARS-green to looped/cyclic peptides of protein X2 of SARS-CoV Urbani” value worked out at 0.4. Besides, in assay [1], the “Binding of serum SARS-yellow to linear peptides of protein X2” value is given as 0.8 and the “Binding of serum SARS-yellow to looped/cyclic peptides of protein X2 of SARS-CoV Urbani” value is 0.6. For the same sequence, in assay [2], the “Binding of a rabbit serum to linear peptides” value was determined as 0.7 and the “Binding of a rabbit serum to looped peptides” value was determined as 0.4. In assay [3], the “Binding of Control Serum Blood-Bank to Looped peptides” value stood at 0.6, the “Binding of Control serum Blood-bank to linear peptides” value amounted to 0.6, the “Binding of Control serum LUMC to linear peptides” value worked out at 0.8 and the “Binding of Control serum LUMC to looped peptides” value is 0.5.
For the sequence HKLLQTLVLKMLHSS, in assay [1], the “Binding of serum 1a to linear peptides of protein X2” value was 0.5, the “Binding of serum 1a to looped/cyclic peptides of protein X2 of SARS-CoV Urbani” value stood at 0.6, the “Binding of serum 1b to linear peptides of protein X2” value is 0.5 and the “Binding of serum 1b to looped/cyclic peptides of protein X2 of SARS-CoV Urbani” value stood at 0.6. Also, in assay [1], the “Binding of serum 2 to linear peptides of protein X2” value was found to be 0.4, the “Binding of serum 2 to looped/cyclic peptides of protein X2 of SARS-CoV Urbani” value is 0.4, the “Binding of serum 6 to linear peptides of protein X2” value was 0.2 and the “Binding of serum 6 to looped/cyclic peptides of protein X2 of SARS-CoV Urbani” value is 0.4. In assay [1], the “Binding of serum 37 to linear peptides of protein X2” value amounted to 0.5, the “Binding of serum 37 to looped/cyclic peptides of protein X2 of SARS-CoV Urbani” value came out at 0.5, the “Binding of serum 62 to linear peptides of protein X2” value is 0.5 and the “Binding of serum 62 to looped/cyclic peptides of protein X2 of SARS-CoV Urbani” value is 0.7. In assay [1], the “Binding of serum London to linear peptides of protein X2” value is reported as 0.4, the “Binding of serum London to looped/cyclic peptides of protein X2 of SARS-CoV Urbani” value is recorded as 0.3, the “Binding of serum SARS-green to linear peptides of protein X2” value was 0.4 and the “Binding of serum SARS-green to looped/cyclic peptides of protein X2 of SARS-CoV Urbani” value is 0.3. In assay [1], the “Binding of serum SARS-yellow to linear peptides of protein X2” value came out at 0.5 and the “Binding of serum SARS-yellow to looped/cyclic peptides of protein X2 of SARS-CoV Urbani” value came to 0.5. Further, in assay [2], the “Binding of a rabbit serum to linear peptides” value is 0.2 and the “Binding of a rabbit serum to looped peptides” value is 0.4. Also, in assay [3], the “Binding of Control Serum Blood-Bank to Looped peptides” value is listed as 0.7, the “Binding of Control serum Blood-bank to linear peptides” value was 0.6, the “Binding of Control serum LUMC to linear peptides” value is 0.4 and the “Binding of Control serum LUMC to looped peptides” value is 0.7.
In the case of HLVDFQVTIAEILII, in assay [1], the “Binding of serum 1a to linear peptides of protein X3 of SARS-CoV Urbani” value came out at 0.8, the “Binding of serum 1a to looped/cyclic peptides of protein X3 of SARS-CoV Urbani” value turned out to be 0.7, the “Binding of serum 1b to linear peptides of protein X3 of SARS-CoV Urbani” value came to 0.6 and the “Binding of serum 1b to looped/cyclic peptides of protein X3 of SARS-CoV Urbani” value came out at 0.4. Besides, in assay [1], the “Binding of serum 2 to linear peptides of protein X3 of SARS-CoV Urbani” value was 0.7, the “Binding of serum 2 to looped/cyclic peptides of protein X3 of SARS-CoV Urbani” value is 0.6, the “Binding of serum 6 to linear peptides of protein X3 of SARS-CoV Urbani” value is 0.5 and the “Binding of serum 6 to looped/cyclic peptides of protein X3 of SARS-CoV Urbani” value is 0.4. In addition, in assay [1], the “Binding of serum 37 to linear peptides of protein X3 of SARS-CoV Urbani” value is reported as 0.7, the “Binding of serum 37 to looped/cyclic peptides of protein X3 of SARS-CoV Urbani” value is reported as 0.6, the “Binding of serum 62 to linear peptides of protein X3 of SARS-CoV Urbani” value is listed as 0.6 and the “Binding of serum 62 to looped/cyclic peptides of protein X3 of SARS-CoV Urbani” value was determined as 0.7. Besides, in assay [1], the “Binding of serum London to linear peptides of protein X3 of SARS-CoV Urbani” value stood at 0.6, the “Binding of serum London to looped/cyclic peptides of protein X3 of SARS-CoV Urbani” value is on record as 0.2, the “Binding of serum SARS-green to linear peptides of protein X3 of SARS-CoV Urbani” value is listed as 0.4 and the “Binding of serum SARS-green to looped/cyclic peptides of protein X3 of SARS-CoV Urbani” value was determined as 0.2. Moreover, in assay [1], the “Binding of serum SARS-yellow to linear peptides of protein X3 of SARS-CoV Urbani” value was determined as 0.5 and the “Binding of serum SARS-yellow to looped/cyclic peptides of protein X3 of SARS-CoV Urbani” value was 0.7. In assay [2], the “Rabbit serum linear peptides” value is reported as 0.3 and the “Rabbit serum looped peptides” value was found to be 0.3. In addition, in assay [3], the “Binding of Control Serum Blood-Bank to Looped peptides of the protein X3 of SARS-CoV Urbani” value stood at 0.9, the “Binding of Control serum Blood-bank to linear peptides of the protein X3 of SARS-CoV Urbani” value is 0.8, the “Binding of Control serum LUMC to linear peptides of the protein X3 of SARS-CoV Urbani” value was determined as 0.7 and the “Binding of Control serum LUMC to looped peptides of the protein X3 of SARS-CoV Urbani” value was 0.7.
For the sequence HRMCKYTQSTALQEL, in assay [1], the “Binding of serum 1a to linear peptides of protein X2” value came to 0.9, the “Binding of serum 1a to looped/cyclic peptides of protein X2 of SARS-CoV Urbani” value amounted to 0.6, the “Binding of serum 1b to linear peptides of protein X2” value was found to be 0.8 and the “Binding of serum 1b to looped/cyclic peptides of protein X2 of SARS-CoV Urbani” value is listed as 0.6. In assay [1], the “Binding of serum 2 to linear peptides of protein X2” value stood at 0.5, the “Binding of serum 2 to looped/cyclic peptides of protein X2 of SARS-CoV Urbani” value amounted to 0.4, the “Binding of serum 6 to linear peptides of protein X2” value amounted to 0.5 and the “Binding of serum 6 to looped/cyclic peptides of protein X2 of SARS-CoV Urbani” value was found to be 1.0. Besides, in assay [1], the “Binding of serum 37 to linear peptides of protein X2” value was determined as 0.8, the “Binding of serum 37 to looped/cyclic peptides of protein X2 of SARS-CoV Urbani” value worked out at 0.5, the “Binding of serum 62 to linear peptides of protein X2” value is reported as 0.8 and the “Binding of serum 62 to looped/cyclic peptides of protein X2 of SARS-CoV Urbani” value is 0.6. In assay [1], the “Binding of serum London to linear peptides of protein X2” value was found to be 0.5, the “Binding of serum London to looped/cyclic peptides of protein X2 of SARS-CoV Urbani” value is reported as 1.5, the “Binding of serum SARS-green to linear peptides of protein X2” value is 0.8 and the “Binding of serum SARS-green to looped/cyclic peptides of protein X2 of SARS-CoV Urbani” value was 0.5. Further, in assay [1], the “Binding of serum SARS-yellow to linear peptides of protein X2” value worked out at 0.8 and the “Binding of serum SARS-yellow to looped/cyclic peptides of protein X2 of SARS-CoV Urbani” value was 0.5. Also, in assay [2], the “Binding of a rabbit serum to linear peptides” value amounted to 0.3 and the “Binding of a rabbit serum to looped peptides” value came out at 0.4. Moreover, in assay [3], the “Binding of Control Serum Blood-Bank to Looped peptides” value was 0.8, the “Binding of Control serum Blood-bank to linear peptides” value was 0.9, the “Binding of Control serum LUMC to linear peptides” value amounted to 0.7 and the “Binding of Control serum LUMC to looped peptides” value is given as 0.6.
